Experimental findings from patent publication US20020034725A1, “SENSITIZATION OF CELLS TO RADIATION AND AND CHEMOTHERAPY” (priority 1996, published 2002) are described below.

Assay [1] has as its system 3.7 and 5R cells. The experiment in a line: Cell growth after FTI-277 treatment. In kind it is cell-based, rat. As for the experimental part: FIG. 15A is a graph depicting growth of primary REF cells (circles) and 3.7 cells (squares) after FTI-277 treatment. Two×10^5 cells were plated in medium containing 2.5 μM (3.7 cells) or 5 μM (REF cells) of FTI-277. […] Cells were harvested from replicate dishes at one day intervals and counted using a hemocytometer to determine the total cell number in each culture. Open symbols: DMSO (drug carrier) treated cells; closed symbols: FTI-277 treated cells.
FIG. 15B is a graph depicting growth of MR4 cells (circles) and 5R cells (squares) following treatment with FTI-277 treatment. Three×10^5 cells were plated in medium containing 5 μM FTI-277. Cells were harvested from replicate dishes at one day intervals and counted using a hemocytometer to determine the total cell number in each culture. Open symbols: DMSO (drug carrier) treated cells; closed symbols: 5 μM FTI-277 treated cells.

In assay [2] the test system is H-ras. In words: Western blot of H-ras prenylation in SW480 cells. It counts as cell-based, human. Conditions: 48 hours. The protocol:
FIG. 17A is an image of a Western blot depicting inhibition by FTI-277 of K-ras prenylation in human SW480 colon carcinoma cells. SW480 cells were treated with the indicated concentrations of FTI-277 (μM) for 48 hours. Samples were harvested and cell lysates were analyzed by Western blotting using either a H-ras monoclonal antibody (top) or a K-ras monoclonal antibody (bottom). Arrows indicate unfarnesylated ras bands.

The subject of assay [3] is 3.7, 5R and REF-GG cells. In words: Morphological alterations of ras transformed REF cells. In kind it is cell-based, rat. The protocol:
FIG. 11A is an image of 3.7 cells that were cultured in medium containing 2.5 μM FTI-277 (right) or DMSO (left) for 48 hours.
FIG. 11B is an image of REF-GG cells that were cultured in medium containing 5 μM FTI-277 (right) or DMSO (left) for 48 hours.

Turning to `COC(=O)[C@H](CCSC)NC(=O)c1ccc(NC[C@@H](N)CS)cc1-c1ccccc1` [FTI-277], the cell growth entry in assay [1] (3.7 cells, conditions of radiation survival experiments) is recorded as “some inhibition of cell growth”; in assay [1] (5R cells, 5 μM), “more resistant to growth inhibition”. In assay [1] (3.7 cells, day 4 after drug treatment), the “increase in cell number” value is listed as “fifty-fold increase in cell number”. Also, the “lowest concentration with altered migration of H-ras” value in assay [2] stood at 2.5 µM. The cell morphology result in assay [3] (H-ras transformed REF cells (3.7 cells 2.5 μM), 48 hours) is “partial reversion of transformation”; in assay [3] (REF-GG cells, 5 μM), “did not induce altered cell morphology”.
